The text below walks through data of ChEMBL document CHEMBL2424647, “Molecular docking studies of the interaction between propargylic enol ethers and human DNA topoisomerase IIα” (2013).

Assay type in all cases: functional
The subject of one test is WiDr. In words: Growth inhibition of human WiDr after 48 hrs.
Another test relates to HeLa. In words: Growth inhibition of human HeLa after 48 hrs.
A further test concerns SW1573. In words: Growth inhibition of human SW1573 after 48 hrs. As to conditions: SW1573, 48 h.
The test system of the next test is HBL-100. In words: Growth inhibition of human HBL100 after 48 hrs. Conditions: HBL-100, 48 h.

Consider `CCCCC(C#CC(=O)OC)O/C=C/C(=O)OC` (racemic), for which the GI50 (usually the concentration giving 50% growth inhibition) turned out to be 3.6 µM with WiDr, 3.4 µM in the test with HeLa, 0.42 µM in the test with SW1573 and 0.47 µM in the test on HBL-100.

Consider `CCCCC[C@H](C#CC(=O)OC)O/C=C/C(=O)OC`, for which the 50% growth inhibitory concentration (GI50) stood at 26 µM in the test with WiDr, 2.6 µM in the test with HeLa, 5.5 µM in the test with SW1573 and 3.3 µM in the test on HBL-100.

Turning to `CCCCC[C@@H](C#CC(=O)OC)O/C=C/C(=O)OC`, the 50% growth inhibitory concentration (GI50) in the test with WiDr was 24 µM; with HeLa, 2.9 µM; in the test on SW1573, 8.4 µM; in the test on HBL-100 it was 2.3 µM.

Turning to `CCCCCC(C#CC(=O)OC)O/C=C/C(=O)OC` (racemic), the GI50 turned out to be 13 µM in the test with WiDr, 17 µM in the test on HeLa, 1.3 µM in the test on SW1573 and 2.7 µM in the test on HBL-100.
